Measured values reported in patent US20240409602A1, “PEPTIDE MODULATORS OF NEUROLIGIN 4-NEUREXIN 1-BETA AXIS FOR TREATMENT OF LIVER DISORDERS” (HADASIT MEDICAL RESEARCH SERVICES AND DEVELOPMENT LTD., priority 2022, published 2024).
No end group written: not given here.

Key:
[1] = tested on: Hep3B cells; assay: Cell cycle analysis of Hep3B cells by flow cytometry, PI staining; assay type: cell-based, human; conditions: 8000 ng/ml
Experimental: Cell cycle analysis by Flow cytometry: evaluation of cell cycle stage of Hep3B HCC cells, was performed according to a standard protocol, using Propidium-Iodide (PI)-staining of nuclei. To […] attenuation of the proliferative capabilities of HCC cells following modulation by peptide 1, the stage of the cell cycle of Hep3B cells treated with 8000 ng/ml peptide 1 or with a control peptide having a scrambled sequence was evaluate using flow cytometry and Propidium Iodide (PI)-staining.

[2] = tested on: CCl4-induced mice (acute hepatic fibrosis model); assay: Liver histology (H&E, Sirius Red, Masson's trichrome) in CCl4 model; assay type: in vivo; conditions: 5 or 10 mg/mice i.p. 3×/week for 4 weeks
Experimental: (§1) Animal model: 40 WT naïve C57BL/6J male mice (12 weeks) were either induced for acute hepatic fibrosis by i.p injections of 0.5 μl pure carbon tetrachloride CCl4/g body weight (one to nine dilution in mineral oil) (CCl4; Sigma, C-5331) 3×/week for four weeks as an advanced model of hepatic fibrosis, or left untreated (induced n=32, control n=8 per experiment). NLGn4-Nrx1β PPI modulator peptide 1 was i.p injected to CCl4 induced mice as preventive doses from the beginning of the model starting at 1st week of CCl4 at a concentration of 5 and 10 mg/mice 3×/week for four weeks (5 mg/mice n=8, 10 mg/mice n=8). A scrambled peptide was also i.p injected to CCl4 induced mice (5 mg/mice n=8, 10 mg/mice n=8). Food and water intake were recorded every week. Mice were sacrificed two days after the final CCl4 injection. To this end, the animals were weighed and anesthetized with inhaled 5% isoflurane for 10 seconds before cervical dislocation.
(§2) Histological and biochemical assessment of mice livers: The posterior one-third of the liver was fixed in 4% formalin for 24 hours and then paraffin-embedded in an automated tissue processor. […] Serum ALT concentrations were determined using ELISA. […]

[3] = tested on: liver NK cells; assay: F-actin expression in liver NK cells (western blot, immunofluorescence) in CCl4 model; assay type: in vivo, mice; conditions: immune-stained liver tissue, confocal microscopy
Experimental: as §1, with “A scrambled peptide was also i.p injected to CCl4 induced mice (5 mg/mice n=8, 10 mg/mice n=8).” left out, “Mice were sacrificed two days after the final CCl4 injection. To this end, the animals were weighed and anesthetized with inhaled 5% isoflurane for 10 seconds before cervical dislocation.” left out
Western blot analysis: Liver protein extracts were homogenized with buffer (50 mmol/L Tris-HCl [pH 7.61, 0.25% Triton-X 100, 0.15 M NaCl, 10 mM CaCl2) and complete mini EDTA-free protease inhibitor cocktail (Roche Diagnostics, Mannheim, Germany). […] Immunoreactivity was detected using an ECL kit (Abcam).
Immunofluorescence staining: For deparaffinization, paraffin-embedded sections were placed at 60° C. for 15 minutes, incubated in xylene at room temperature for 15 minutes, and then transferred sequentially to 100% EtOH, 95% EtOH, 70% EtOH, and 50% EtOH for four minutes each at room temperature. […] An argon laser (488 nm excitation) was used to detect green fluorescence, and an Alexa Fluor laser (552 nm) to detect red fluorescence. […]

[4] = tested on: β-neurexin; assay: β-neurexin expression in liver by RT-PCR in CCl4 model; assay type: in vivo; conditions: relative to naïve mice, 5 or 10 mg/mice i.p. 3×/week for 4 weeks
[5] = tested on: CCl4-induced mice (acute hepatic fibrosis model); assay: Serum ALT by ELISA in CCl4 model; assay type: in vivo; conditions: 5 or 10 mg/mice i.p. 3×/week for 4 weeks
Experimental: as §1, §2

[6] = tested on: NK cells; assay: NK cell activation (CD107a) in monoculture, flow cytometry; assay type: cell-based, human
Source text: (§3) Inhibitory Peptide synthesis: inhibitory peptide 1: MEQGEFLNYD (SEQ ID NO: 1), inhibitory peptide 2: QILMEQGEFLNYDIM (SEQ ID NO: 2), inhibitory peptide 3: […] (SEQ ID NO: 3), and a control peptide having a scrambled sequence: LEGEDQNFYM (SEQ ID NO: 7) were synthesized by Pepscan Ltd. at a purity of 98.3%.
(§4) Cells: primary NK cells were isolated from patients having advanced fibrosis, human hepatic stellate cells (LX2) were commercially purchased.
Monoculture conditions: peptides were supplemented to media of cultured NK cells for 6 h stimulation.
(§5) Fluorescence-activated cell sorting (FACS): Staining colors of antibodies was as follows: αSMA>PE, CD107>FITC, CD56>. After analysis using LSR Fortessa analyzer, raw data was transferred to analysis program FCS Express v7.0.
Three peptides potentially having an inhibitory effect on NLGn4-Nrx1β PPI were generated. The three peptides (peptide 1, peptide 2, and peptide 3) consist of different amino acid sequences (SEQ ID NO: 1, SEQ ID NO: 2, and SEQ ID NO: 3, respectively) that vary in length, all derived from the same binding site for the NLGn4X ligand β-neurexin. The active binding site includes a domain containing the amino acids 359-364 in NLGn4X and the epitopes critical for binding are E361, L363, H267, Y463, and E270.
Initially, peptides were screened for their effect on the activity of NK cells, which was evaluated by measuring the levels of CD107a activation marker. Monocultures of NK cells were stimulated with increasing concentrations of the potentially inhibitory NLGn4-Nrx1β PPI peptides (FIG. 1 and FIGS. 2A-B).

[7] = tested on: LX2 cells; assay: LX2 cell activity (αSMA) in monoculture, flow cytometry; assay type: cell-based, human; conditions: monoculture, 2000, 4000, 8000 ng/ml (peptide 3: 2000 or 4000 ng/ml), vs untreated
Source text: as §3, §4, §5
Following that, the NLGn4-Nrx1β PPI peptides were screened for their effect on the activity of LX2 cells, which was evaluated by measuring the levels of αSMA activation marker. Monocultures of LX2 cells were stimulated with increasing concentrations of the NLGn4-Nrx1βPPI peptides (FIGS. 3A-C).

[8] = tested on: LX2 cells; assay: αSMA in LX2 cells co-cultured with peptide pre-activated NK cells, flow cytometry; assay type: cell-based, human
Experimental: as §4
Co-culture conditions: co-cultures conditions—peptides were supplemented to media of cultured NK cells for 6 h stimulation followed by a wash, trypsinization, and coculturing on LX2 cells for an additional 24 h.
as §5
To test if NLGn4-Nrx1β PPI inhibitory peptides mediated deactivation of LX2 cells is more prominent in the presence of NK cells, a co-culture setting was established for LX2 cells in the presence or absence of activated NK cells (FIGS. 4A-C).
In this setting, NK cells were stimulated with increasing concentrations of NLGn4-Nrx1βPPI inhibitory peptides before co-culturing them with LX2 cells, to examine whether pre-activation makes them more functional in deactivating LX2 cells.

[9] = molecular target: neurexin 1β (Nrx1β) expressed on Hep3B hepatocellular carcinoma cells (human, UniProt Q9ULB1-3 31-1547); assay: cell-based or functional assay
Sequence of neurexin 1β (Nrx1β) expressed on Hep3B hepatocellular carcinoma cells (Q9ULB1 other isoform, or with tags, fused parts or gaps limits assumed): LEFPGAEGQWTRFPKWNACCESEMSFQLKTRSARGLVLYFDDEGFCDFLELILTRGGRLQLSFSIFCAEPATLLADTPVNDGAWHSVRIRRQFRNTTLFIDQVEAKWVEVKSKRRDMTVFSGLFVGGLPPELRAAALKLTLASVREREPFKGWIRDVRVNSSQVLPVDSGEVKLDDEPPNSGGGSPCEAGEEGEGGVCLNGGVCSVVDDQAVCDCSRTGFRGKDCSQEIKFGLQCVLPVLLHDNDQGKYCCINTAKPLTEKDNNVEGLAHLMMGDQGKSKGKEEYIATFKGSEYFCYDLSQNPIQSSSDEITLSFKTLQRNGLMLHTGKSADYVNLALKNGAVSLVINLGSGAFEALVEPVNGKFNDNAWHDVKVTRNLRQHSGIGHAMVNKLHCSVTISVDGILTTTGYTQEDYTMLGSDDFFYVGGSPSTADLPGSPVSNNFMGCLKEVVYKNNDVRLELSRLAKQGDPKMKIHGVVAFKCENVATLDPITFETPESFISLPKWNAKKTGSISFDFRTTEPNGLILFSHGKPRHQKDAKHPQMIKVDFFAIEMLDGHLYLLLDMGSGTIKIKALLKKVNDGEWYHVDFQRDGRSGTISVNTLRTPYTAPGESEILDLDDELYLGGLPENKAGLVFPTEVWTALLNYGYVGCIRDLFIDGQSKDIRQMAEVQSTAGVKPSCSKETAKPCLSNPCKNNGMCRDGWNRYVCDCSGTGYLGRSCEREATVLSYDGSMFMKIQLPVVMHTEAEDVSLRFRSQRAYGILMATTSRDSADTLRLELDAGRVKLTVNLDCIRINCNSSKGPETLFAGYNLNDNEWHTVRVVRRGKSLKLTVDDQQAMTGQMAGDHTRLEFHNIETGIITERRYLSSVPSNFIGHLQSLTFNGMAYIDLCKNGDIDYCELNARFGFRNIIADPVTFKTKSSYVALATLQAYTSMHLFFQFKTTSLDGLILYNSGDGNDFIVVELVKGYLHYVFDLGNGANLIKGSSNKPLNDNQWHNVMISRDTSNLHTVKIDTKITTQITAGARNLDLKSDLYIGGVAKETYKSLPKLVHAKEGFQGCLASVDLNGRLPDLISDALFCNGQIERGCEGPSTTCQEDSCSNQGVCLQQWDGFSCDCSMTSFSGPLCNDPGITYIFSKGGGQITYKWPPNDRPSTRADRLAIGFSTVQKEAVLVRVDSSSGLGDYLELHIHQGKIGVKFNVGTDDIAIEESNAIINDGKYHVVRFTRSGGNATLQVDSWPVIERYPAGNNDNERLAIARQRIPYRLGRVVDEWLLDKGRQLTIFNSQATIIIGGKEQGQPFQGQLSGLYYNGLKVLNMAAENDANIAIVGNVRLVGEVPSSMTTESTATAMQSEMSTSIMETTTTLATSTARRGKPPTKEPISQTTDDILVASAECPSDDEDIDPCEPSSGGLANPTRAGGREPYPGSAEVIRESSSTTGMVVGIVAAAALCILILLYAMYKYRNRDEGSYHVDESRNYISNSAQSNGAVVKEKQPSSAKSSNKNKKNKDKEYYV

Molecule: LEGEDQNFYM [scrambled peptide]
- percentage of cells existing at a state of G1 [1]: 38%
- percentage of cells existing at a state of G2-M phase [1]: 25%
- percentage of cells existing at a state of S-phase [1]: 11%
- collagen deposition / fibrous dense tissue (Sirius Red staining) [2]: increased collagen deposition in perisinusoidal areas
- F-actin inside NK cells, co-localization with NKP46 (immunofluorescence) [3]: not seen inside NK cells
- levels of β-neurexin in liver [4]: elevated levels of β-neurexin
- levels of serum ALT [5]: significant increase in ALT levels

Molecule: QILMEQGEFLNYDIM [peptide 2]
- activity of NK cells (levels of CD107a) ([6]; monoculture, 6 h stimulation, 2000, 4000, 8000 ng/ml (peptide 3: 2000 or 4000 ng/ml), vs untreated): elevated the activity of the cells
- dose dependence of effect on NK cell activity (CD107a) ([6]; monoculture, increasing concentrations 2000-8000 ng/ml): not dose-dependent
- activity of LX2 cells (levels of αSMA) [7]: deactivation of the cells
- dose dependence of effect in co-culture (αSMA) ([8]; NK cells pre-activated with increasing concentrations): not dose-dependent
- activity of LX2 cells (levels of αSMA) in co-culture with pre-activated NK cells ([8]; NK cells pre-stimulated 6 h with 2000-8000 ng/ml peptide, co-culture 24 h): downregulated the activity of the LX2 cells

Molecule: DPQILMEQGEFLNYDIMLGV [peptide 3]
- toxicity to NK cells ([6]; inferred from CD107a decrease at higher peptide concentrations): may be toxic to the cells

Molecule: MEQGEFLNYD [NLGn4-Nrx1β PPI inhibitory peptide 1]
- apoptotic marker phosphatidylserine (Annexin-V+/PI-) in Hep3B cells (flow cytometry), peptide 1 against scrambled control peptide [9]: 3 fold increase
- expression of PDGFRA and MKI67 proliferation markers in Hep3B cells (flow cytometry), peptide 1 against scrambled control peptide [9]: ~2 fold reduction
- expression of the necrotic marker CDNK2A in Hep3B cells (flow cytometry), peptide 1 against scrambled control peptide [9]: 2 fold reduction
- percentage of Hep3B cells in G1 phase (PI staining, flow cytometry), 8000 ng/ml peptide 1 against scrambled control peptide [9]: ~2 fold increase
- percentage of Hep3B cells in G2-M phase (PI staining, flow cytometry), 8000 ng/ml peptide 1 against scrambled control peptide [9]: 2.5 fold decrease
- percentage of Hep3B cells in S-phase (PI staining, flow cytometry), 8000 ng/ml peptide 1 against scrambled control peptide [9]: ~2 fold decrease
- phosphorylated AKT/mTOR/P70S6K in Hep3B cells (flow cytometry), peptide 1 against scrambled control peptide [9]: 2 fold reduction
